Assay: SAD study: cardiac safety (ECG, telemetry, QTcF prolongation)

CCC(=O)C(C[C@H](C)N(C)C)(c1ccccc1)c1ccccc1 [d-methadone]
Overall ECG result Abnormal, NCS (5 mg (N = 6), 0.5 h): 0 n (%) | Overall ECG result Normal (5 mg (N = 6), 0.5 h): 6 n (%) | Overall ECG result Abnormal, NCS (5 mg (N = 6), 1 h): 1 n (%) | Overall ECG result Normal (5 mg (N = 6), 1 h): 5 n (%) | Overall ECG result Abnormal, NCS (5 mg (N = 6), 2 h): 3 n (%) | Overall ECG result Normal (5 mg (N = 6), 2 h): 3 n (%) | Overall ECG result Abnormal, NCS (5 mg (N = 6), 3 h): 2 n (%) | Overall ECG result Normal (5 mg (N = 6), 3 h): 4 n (%) | Overall ECG result Abnormal, NCS (5 mg (N = 6), 5 h): 2 n (%) | Overall ECG result Normal (5 mg (N = 6), 5 h): 4 n (%) | Overall ECG result Abnormal, NCS (5 mg (N = 6), 8 h): 0 n (%) | Overall ECG result Normal (5 mg (N = 6), 8 h): 6 n (%) | Overall ECG result Abnormal, NCS (5 mg (N = 6), 12 h): 0 n (%) | Overall ECG result Normal (5 mg (N = 6), 12 h): 6 n (%) | Overall ECG result Abnormal, NCS (5 mg (N = 6), 24 h): 1 n (%) | Overall ECG result Normal (5 mg (N = 6), 24 h): 5 n (%) | Overall ECG result Abnormal, NCS (5 mg (N = 6), 48 h): 0 n (%) | Overall ECG result Normal (5 mg (N = 6), 48 h): 6 n (%) | Overall ECG result Abnormal, NCS (5 mg (N = 6), 72 h): 0 n (%) | Overall ECG result Normal (5 mg (N = 6), 72 h): 6 n (%) | Overall ECG result Abnormal, NCS (5 mg (N = 6), Visit 3): 1 n (%) | Overall ECG result Normal (5 mg (N = 6), Visit 3): 5 n (%) | QTcF Average (5 mg, subject 9002, 5 h): 445 ms | QTcF Reading 1 (5 mg, subject 9002, 5 h): 451 ms | QTcF Reading 2 (5 mg, subject 9002, 5 h): 446 ms | QTcF Reading 3 (5 mg, subject 9002, 5 h): 439 ms | QTcF Average (5 mg, subject 9003, 1 h): 420 ms | QTcF Reading 1 (5 mg, subject 9003, 1 h): 437 ms | QTcF Reading 2 (5 mg, subject 9003, 1 h): 411 ms | QTcF Reading 3 (5 mg, subject 9003, 1 h): 412 ms | QTcF Average (5 mg, subject 9003, 2 h): 432 ms | QTcF Reading 1 (5 mg, subject 9003, 2 h): 440 ms | QTcF Reading 2 (5 mg, subject 9003, 2 h): 434 ms | QTcF Reading 3 (5 mg, subject 9003, 2 h): 421 ms | QTcF Average (5 mg, subject 9003, 3 h): 429 ms | QTcF Reading 1 (5 mg, subject 9003, 3 h): 424 ms | QTcF Reading 2 (5 mg, subject 9003, 3 h): 427 ms | QTcF Reading 3 (5 mg, subject 9003, 3 h): 435 ms | QTcF Average (5 mg, subject 9003, 5 h): 432 ms | QTcF Reading 1 (5 mg, subject 9003, 5 h): 434 ms | QTcF Reading 2 (5 mg, subject 9003, 5 h): 435 ms | QTcF Reading 3 (5 mg, subject 9003, 5 h): 426 ms | QTcF Average (5 mg, subject 9009, 2 h): 420 ms | QTcF Reading 1 (5 mg, subject 9009, 2 h): 413 ms | QTcF Reading 2 (5 mg, subject 9009, 2 h): 431 ms | QTcF Reading 3 (5 mg, subject 9009, 2 h): 417 ms | Overall ECG result Abnormal, NCS (20 mg (N = 6), 0.5 h): 1 (16.7) n (%) | Overall ECG result Normal (20 mg (N = 6), 0.5 h): 5 (83.3) n (%) | Overall ECG result Abnormal, NCS (20 mg (N = 6), 1 h): 1 (16.7) n (%) | Overall ECG result Normal (20 mg (N = 6), 1 h): 5 (83.3) n (%) | Overall ECG result Abnormal, NCS (20 mg (N = 6), 2 h): 2 (33.3) n (%) | Overall ECG result Normal (20 mg (N = 6), 2 h): 4 (66.7) n (%) | Overall ECG result Abnormal, NCS (20 mg (N = 6), 3 h): 2 (33.3) n (%) | Overall ECG result Normal (20 mg (N = 6), 3 h): 4 (66.7) n (%) | Overall ECG result Abnormal, NCS (20 mg (N = 6), 5 h): 1 (16.7) n (%) | Overall ECG result Normal (20 mg (N = 6), 5 h): 5 (83.3) n (%) | Overall ECG result Abnormal, NCS (20 mg (N = 6), 8 h): 1 (16.7) n (%) | Overall ECG result Normal (20 mg (N = 6), 8 h): 5 (83.3) n (%) | Overall ECG result Abnormal, NCS (20 mg (N = 6), 12 h): 1 (16.7) n (%) | Overall ECG result Normal (20 mg (N = 6), 12 h): 5 (83.3) n (%) | Overall ECG result Abnormal, NCS (20 mg (N = 6), 24 h): 1 (16.7) n (%) | Overall ECG result Normal (20 mg (N = 6), 24 h): 5 (83.3) n (%) | Overall ECG result Abnormal, NCS (20 mg (N = 6), 48 h): 2 (33.3) n (%) | Overall ECG result Normal (20 mg (N = 6), 48 h): 4 (66.7) n (%) | Overall ECG result Abnormal, NCS (20 mg (N = 6), 72 h): 1 (16.7) n (%) | Overall ECG result Normal (20 mg (N = 6), 72 h): 5 (83.3) n (%) | Overall ECG result Abnormal, NCS (20 mg (N = 6), Visit 3): 0 n (%) | Overall ECG result Normal (20 mg (N = 6), Visit 3): 6 (100) n (%) | Overall ECG result Abnormal, NCS (60 mg (N = 6), 0.5 h): 1 (16.7) n (%) | Overall ECG result Normal (60 mg (N = 6), 0.5 h): 5 (83.3) n (%) | Overall ECG result Abnormal, NCS (60 mg (N = 6), 1 h): 2 (33.3) n (%) | Overall ECG result Normal (60 mg (N = 6), 1 h): 4 (66.7) n (%) | Overall ECG result Abnormal, NCS (60 mg (N = 6), 2 h): 2 (33.3) n (%) | Overall ECG result Normal (60 mg (N = 6), 2 h): 4 (66.7) n (%) | Overall ECG result Abnormal, NCS (60 mg (N = 6), 3 h): 1 (16.7) n (%) | Overall ECG result Normal (60 mg (N = 6), 3 h): 5 (83.3) n (%) | Overall ECG result Abnormal, NCS (60 mg (N = 6), 5 h): 1 (16.7) n (%) | Overall ECG result Normal (60 mg (N = 6), 5 h): 5 (83.3) n (%) | Overall ECG result Abnormal, NCS (60 mg (N = 6), 8 h): 2 (33.3) n (%) | Overall ECG result Normal (60 mg (N = 6), 8 h): 4 (66.7) n (%) | Overall ECG result Abnormal, NCS (60 mg (N = 6), 12 h): 3 (50.0) n (%) | Overall ECG result Normal (60 mg (N = 6), 12 h): 3 (50.0) n (%) | Overall ECG result Abnormal, NCS (60 mg (N = 6), 24 h): 2 (33.3) n (%) | Overall ECG result Normal (60 mg (N = 6), 24 h): 4 (66.7) n (%) | Overall ECG result Abnormal, NCS (60 mg (N = 6), 48 h): 2 (33.3) n (%) | Overall ECG result Normal (60 mg (N = 6), 48 h): 4 (66.7) n (%) | Overall ECG result Abnormal, NCS (60 mg (N = 6), 72 h): 1 (16.7) n (%) | Overall ECG result Normal (60 mg (N = 6), 72 h): 5 (83.3) n (%) | Overall ECG result Abnormal, NCS (60 mg (N = 6), Visit 3): 1 (16.7) n (%) | Overall ECG result Normal (60 mg (N = 6), Visit 3): 5 (83.3) n (%) | Overall ECG result Abnormal, NCS (100 mg (N = 6), 0.5 h): 1 n (%) | Overall ECG result Normal (100 mg (N = 6), 0.5 h): 5 n (%) | Overall ECG result Abnormal, NCS (100 mg (N = 6), 1 h): 0 n (%) | Overall ECG result Normal (100 mg (N = 6), 1 h): 6 n (%) | Overall ECG result Abnormal, NCS (100 mg (N = 6), 2 h): 1 n (%) | Overall ECG result Normal (100 mg (N = 6), 2 h): 5 n (%) | Overall ECG result Abnormal, NCS (100 mg (N = 6), 3 h): 3 n (%) | Overall ECG result Normal (100 mg (N = 6), 3 h): 3 n (%) | Overall ECG result Abnormal, NCS (100 mg (N = 6), 5 h): 1 n (%) | Overall ECG result Normal (100 mg (N = 6), 5 h): 5 n (%) | Overall ECG result Abnormal, NCS (100 mg (N = 6), 8 h): 1 n (%) | Overall ECG result Normal (100 mg (N = 6), 8 h): 5 n (%) | Overall ECG result Abnormal, NCS (100 mg (N = 6), 12 h): 0 n (%) | Overall ECG result Normal (100 mg (N = 6), 12 h): 6 n (%) | Overall ECG result Abnormal, NCS (100 mg (N = 6), 24 h): 1 n (%) | Overall ECG result Normal (100 mg (N = 6), 24 h): 5 n (%) | Overall ECG result Abnormal, NCS (100 mg (N = 6), 48 h): 1 n (%) | Overall ECG result Normal (100 mg (N = 6), 48 h): 5 n (%) | Overall ECG result Abnormal, NCS (100 mg (N = 6), 72 h): 0 n (%) | Overall ECG result Normal (100 mg (N = 6), 72 h): 6 n (%) | Overall ECG result Abnormal, NCS (100 mg (N = 6), Visit 3): 0 n (%) | Overall ECG result Normal (100 mg (N = 6), Visit 3): 6 n (%) | QTcF Average (100 mg, subject 9056, 0.5 h): 425 ms
